According to article PMC4707675 (ACS infectious diseases, 2015):
In brackets after ≈: the same amount, converted by molar mass. Several values for one entry are separate records, joined by “and”; a condition that tells them apart may be missing. Equal values may be shown once. Read-outs that look alike come from different tables or passages of the source.

Tests used:
Mtb strain H37Rv [1] = format: cell-based, Mycobacterium tuberculosis
Mtb DHFR [2] = target: T1, Mtb DHFR (Mycobacterium tuberculosis, UniProt P9WNX1); format: biochemical; details: read-out: Enzyme IC50 Mtb; purified Mtb DHFR
[3] = system: intracellular Mtb growth in macrophages (THP-1 cells); test: Intracellular assay of Mtb clearance in THP-1 cells; format: cell-based, Mycobacterium tuberculosis; details: Mtb in THP-1 cells
[4] = format: in vitro ADME
Mtb strain H37Rv [5] = details: cited from earlier work; for activity against live Mtb: result in words; for MIC90 wt: wild-type Mtb, ref Nixon et al.[15]
Mtb DHFR [6] = target: T1, Mtb DHFR; details: cited from earlier work; for inhibition of the Mtb DHFR enzyme: result in words
human DHFR = target: T2, human DHFR (Homo sapiens, UniProt P00374); test: Biochemical assay of human DHFR; details: read-out: Enzyme IC50 Human; recombinant human DHFR
T2 sequence (P00374 1-187): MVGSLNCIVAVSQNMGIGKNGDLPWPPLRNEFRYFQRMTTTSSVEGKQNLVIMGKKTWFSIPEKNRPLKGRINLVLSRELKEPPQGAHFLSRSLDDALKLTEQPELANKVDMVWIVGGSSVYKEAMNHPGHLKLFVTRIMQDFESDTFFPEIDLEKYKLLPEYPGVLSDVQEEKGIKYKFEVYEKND

[7] = in vivo; cited from earlier work

T1 sequence (P9WNX1 whole entry): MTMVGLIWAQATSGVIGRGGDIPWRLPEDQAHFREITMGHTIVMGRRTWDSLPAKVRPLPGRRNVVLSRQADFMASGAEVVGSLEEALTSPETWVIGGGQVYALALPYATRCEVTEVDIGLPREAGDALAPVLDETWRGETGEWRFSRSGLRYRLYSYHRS

With `N#Cc1ccc(Cn2ccc3c4c(N)nc(N)nc4ccc32)cc1` [PQD-1] the MIC90 wt (Mtb strain H37Rv [1]) was 0.5 µM and 0.50 µM, the IC50 (Mtb DHFR [2]) was 10.1 nM and the “intracell MIC90” value [3] was 0.7 µM. The “in vitro clearance in mouse microsomes” value [4] was less than 0.5 mg/mL·g and the “Tox50 HepG2” value (HepG2) was 10 µM.

In the case of `COc1cc(NCc2ccc3nc(N)nc(N)c3c2C)cc(OC)c1OC` [Trimetrexate], the “activity against live Mtb” value (Mtb strain H37Rv [5]) is listed as “poor or no activity”, the MIC90 wt (Mtb strain H37Rv [5]) is listed as 6.3 µM (≈ 2.33 µg/mL) and the MIC90 wt (Mtb strain H37Rv [5]; listed as trimetrexate) is listed as 6.25 µM (≈ 2.31 µg/mL). For the same molecule, the “inhibition of the Mtb DHFR enzyme” value (Mtb DHFR [6]) was “strong inhibition”.

For `CC1(C)N=C(N)N=C(N)N1OCCCOc1cc(Cl)c(Cl)cc1Cl` [WR99210], the MIC90 wt (Mtb strain H37Rv [1]) was 1 to 2 µM, the IC50 (human DHFR) was 9 nM and the “in vitro clearance in mouse microsomes” value [4] was less than 0.5 mg/mL·g. For the same molecule, the “Tox50 HepG2” value (HepG2) was 40 µM, the “cell health: membrane permeability” value (HepG2 human hepatocytes) was 19 µM and the “cell health: mitochondrial potential” value (HepG2 human hepatocytes) was 25 µM. The “cell health: nuclear morphology” value (HepG2 human hepatocytes) was 10 µM, the IC50 (Mtb DHFR [6]; read-out: Enzyme IC50 Mtb, ref Nixon et al.[15]) was 14 nM and the toxicity in humans [7] was “acute gastrointestinal toxicity”.

For `CN(Cc1cnc2nc(N)nc(N)c2n1)c1ccc(C(=O)N[C@@H](CCC(=O)O)C(=O)O)cc1` [methotrexate], the “activity against live Mtb” value (Mtb strain H37Rv [5]) is given as “poor or no activity”.

In the case of `CCc1nc(N)nc(N)c1-c1ccc(Cl)cc1` [pyrimethamine], the “activity against live Mtb” value (Mtb strain H37Rv [5]) is given as “poor or no activity” and the “inhibition of the Mtb DHFR enzyme” value (Mtb DHFR [6]) is given as “strong inhibition”.
